Test results from publication PMC7939570, “Discovery of potent histone deacetylase inhibitors with modified phenanthridine caps” (Journal of Enzyme Inhibition and Medicinal Chemistry, 2021).

Tests used:
[1] = tested on: Hela nucleus extract containing a mixture of HDAC isoforms; experiment: HDAC enzyme inhibitory assay with Hela nucleus extract; assay type: biochemical; settings: 1 µM, mean of three experiments
Procedure: The HDAC enzyme inhibitory activities of synthesised compounds were investigated by utilising Hela nucleus extract containing a mixture of HDAC isoforms. Percentage inhibitory rate was used to determine the activity of tested compounds (Tables 1 and 2). The Fa series compounds were firstly synthesised for the activity screening. […] To investigate whether aromatic linker could improve the inhibitory activities, structural modifications were performed on current molecules.

U937 cells = experiment: MTT antiproliferative assay, U937 cells; settings: U937 cells, MTT, mean of three experiments; for U937 percentage inhibitory rate: 1 µM; for inhibition at 1 µM: Homo sapiens, U-937, read-out: U937 percentage inhibitory rate, 1 µM

In the case of “4-{4-[6–(3-Nitro-benzoylamino)-benzo[1,3]dioxol-5-yl]-benzoylamino}-N-Hydroxy-butyramide [Fa-17]”, the “HDACs percentage inhibitory rate” value [1] is reported as 52.44 ± 6.17% and the “U937 percentage inhibitory rate” value (U937 cells) is reported as 13.42 ± 0.81%.

In the case of `O=C(CCCNC(=O)c1ccc(-c2cc3c(cc2NC(=O)c2cccc(Br)c2)OCO3)cc1)NO` [Fa-1, 4-{4-[6–(3-Bromo-benzoylamino)-benzo[1,3]dioxol-5-yl]-benzoylamino}-N-Hydroxy-butyramide], the “HDACs percentage inhibitory rate” value [1] is reported as 6.63 ± 1.28% and the inhibition at 1 µM (U937 cells) is reported as 21 ± 0.55%.

With `COc1ccccc1C(=O)Nc1cc2c(cc1-c1ccc(C(=O)NCCCC(=O)NO)cc1)OCO2` [Fa-2, 4-{4-[6–(2-Methoxy-benzoylamino)-benzo[1,3]dioxol-5-yl]-benzoylamino}-N-Hydroxy-butyramide] the “HDACs percentage inhibitory rate” value [1] was 15.23 ± 3.23% and the inhibition at 1 µM (U937 cells) was 19.2 ± 1.09%.

`O=C(CCCNC(=O)c1ccc(-c2cc3c(cc2NC(=O)c2ccc(F)cc2)OCO3)cc1)NO` [Fa-3, 4-{4-[6-(4-Fluoro-benzoylamino)-benzo[1,3]dioxol-5-yl]-benzoylamino}-N-Hydroxy-butyramide] was tested, and the “HDACs percentage inhibitory rate” value [1] was 9.22 ± 2.28% and the inhibition at 1 µM (U937 cells) was 19.4 ± 1.44%.

`Cc1ccccc1C(=O)Nc1cc2c(cc1-c1ccc(C(=O)NCCCC(=O)NO)cc1)OCO2` [Fa-4, 4-{4-[6-(2-Methyl-benzoylamino)-benzo[1,3]dioxol-5-yl]-benzoylamino}-N-Hydroxy-butyramide] was tested, and the “HDACs percentage inhibitory rate” value [1] was 13.65 ± 4.04% and the inhibition at 1 µM (U937 cells) was 18.2 ± 2.91%.

For `O=C(CCCNC(=O)c1ccc(-c2cc3c(cc2NC(=O)c2cccc(F)c2)OCO3)cc1)NO` [Fa-5, 4-{4-[6-(3-Fluoro-benzoylamino)-benzo[1,3]dioxol-5-yl]-benzoylamino}-N-Hydroxy-butyramide], the “U937 percentage inhibitory rate” value (U937 cells) was 33.95 ± 1.70% and the inhibition at 1 µM (U937 cells) was 19.9 ± 1.33%.

`O=C(CCCNC(=O)c1ccc(-c2cc3c(cc2NC(=O)c2ccccc2C(F)(F)F)OCO3)cc1)NO` [Fa-6, 4-{4-[6-(2-Trifluoromethyl-benzoylamino)-benzo[1,3]dioxol-5-yl]-benzoylamino}-N-Hydroxy-butyramide] was tested, and the “HDACs percentage inhibitory rate” value [1] was 24.88 ± 4.88% and the inhibition at 1 µM (U937 cells) was 15 ± 2.47%.

`CCc1ccc(C(=O)Nc2cc3c(cc2-c2ccc(C(=O)NCCCC(=O)NO)cc2)OCO3)cc1` [Fa-7, 4-{4-[6-(4-Ethyl-benzoylamino)-benzo[1,3]dioxol-5-yl]-benzoylamino}-N-Hydroxy-butyramide] was tested, and the “HDACs percentage inhibitory rate” value [1] was 25.79 ± 5.79% and the inhibition at 1 µM (U937 cells) was 22.2 ± 2.28%.

With `O=C(CCCNC(=O)c1ccc(-c2cc3c(cc2NC(=O)c2ccccc2F)OCO3)cc1)NO` [Fa-8, 4-{4-[6-(2-Fluoro-benzoylamino)-benzo[1,3]dioxol-5-yl]-benzoylamino}-N-Hydroxy-butyramide] the “HDACs percentage inhibitory rate” value [1] was 5.32 ± 1.72% and the inhibition at 1 µM (U937 cells) was 19.9 ± 1.96%.

For `O=C(CCCNC(=O)c1ccc(-c2cc3c(cc2NC(=O)c2cccc(C(F)(F)F)c2)OCO3)cc1)NO` [Fa-9, 4-{4-[6-(3-Trifluoromethyl-benzoylamino)-benzo[1,3]dioxol-5-yl]-benzoylamino}-N-Hydroxy-butyramide], the “HDACs percentage inhibitory rate” value [1] was 18.92 ± 1.30% and the inhibition at 1 µM (U937 cells) was 20.45 ± 0.05%.

For `O=C(CCCNC(=O)c1ccc(-c2cc3c(cc2NC(=O)c2ccccc2Cl)OCO3)cc1)NO` [Fa-10, 4-{4-[6-(2-Chloro-benzoylamino)-benzo[1,3]dioxol-5-yl]-benzoylamino}-N-Hydroxy-butyramide], the “HDACs percentage inhibitory rate” value [1] was 23.41 ± 1.95% and the inhibition at 1 µM (U937 cells) was 23 ± 1.23%.

`O=C(CCCNC(=O)c1ccc(-c2cc3c(cc2NC(=O)c2ccccc2)OCO3)cc1)NO` [Fa-11, 4-[4–(6-Benzoylamino-benzo[1,3]dioxol-5-yl)-benzoylamino]-N-Hydroxy-butyramide] was tested, and the “HDACs percentage inhibitory rate” value [1] was 14.32 ± 2.19% and the inhibition at 1 µM (U937 cells) was 25.6 ± 1.76%.

With `O=C(CCCNC(=O)c1ccc(-c2cc3c(cc2NC(=O)c2ccc(C(F)(F)F)cc2)OCO3)cc1)NO` [Fa-12, 4-{4-[6–(4-Trifluoromethyl-benzoylamino)-benzo[1,3]dioxol-5-yl]-benzoylamino}-N-Hydroxy-butyramide] the “HDACs percentage inhibitory rate” value [1] was 17.69 ± 3.52% and the inhibition at 1 µM (U937 cells) was 48.5 ± 3.98%.

`COc1ccc(C(=O)Nc2cc3c(cc2-c2ccc(C(=O)NCCCC(=O)NO)cc2)OCO3)cc1` [Fa-13, 4-{4-[6–(4-Methoxy-benzoylamino)-benzo[1,3]dioxol-5-yl]-benzoylamino}-N-Hydroxy-butyramide] was tested, and the “HDACs percentage inhibitory rate” value [1] was 44.51 ± 0.22% and the inhibition at 1 µM (U937 cells) was 88.9 ± 5%.

`O=C(CCCNC(=O)c1ccc(-c2cc3c(cc2NC(=O)c2cc(F)cc(F)c2)OCO3)cc1)NO` [Fa-14, 4-{4-[6–(3,5-Difluoro-benzoylamino)-benzo[1,3]dioxol-5-yl]-benzoylamino}-N-Hydroxy-butyramide] was tested, and the “HDACs percentage inhibitory rate” value [1] was 28.72 ± 4.74% and the inhibition at 1 µM (U937 cells) was 9.84 ± 0.71%.

In the case of `O=C(CCCNC(=O)c1ccc(-c2cc3c(cc2NC(=O)c2ccc(F)cc2F)OCO3)cc1)NO` [Fa-15, 4-{4-[6–(2,4-Difluoro-benzoylamino)-benzo[1,3]dioxol-5-yl]-benzoylamino}-N-Hydroxy-butyramide], the “HDACs percentage inhibitory rate” value [1] is reported as 19.51 ± 4.10% and the inhibition at 1 µM (U937 cells) is reported as 6.76 ± 0.26%.

For `O=C(CCCNC(=O)c1ccc(-c2cc3c(cc2NC(=O)c2ccc(OC(F)(F)F)cc2)OCO3)cc1)NO` [Fa-16, 4-{4-[6–(4-Trifluoromethoxy-benzoylamino)-benzo[1,3]dioxol-5-yl]-benzoylamino}-N-Hydroxy-butyramide], the “HDACs percentage inhibitory rate” value [1] was 34.10 ± 1.02% and the inhibition at 1 µM (U937 cells) was 16.1 ± 2.82%.

`O=C(CCCNC(=O)c1ccc(-c2cc3c(cc2NC(=O)c2ccc(F)cc2C(F)(F)F)OCO3)cc1)NO` [Fa-18, 4-{4-[6–(4-Fluoro-2-trifluoromethyl-benzoylamino)-benzo[1,3]dioxol-5-yl]-benzoylamino}-N-Hydroxy-butyramide] was tested, and the “HDACs percentage inhibitory rate” value [1] was 31.47 ± 3.47% and the inhibition at 1 µM (U937 cells) was 10.3 ± 1.31%.

In the case of `O=C(CCCNC(=O)c1ccc(-c2cc3c(cc2NC(=O)c2ccc(F)c(Cl)c2)OCO3)cc1)NO` [Fa-19, 4-{4-[6–(3-Chloro-4-fluoro-benzoylamino)-benzo[1,3]dioxol-5-yl]-benzoylamino}-N-Hydroxy-butyramide], the “HDACs percentage inhibitory rate” value [1] is reported as 24.43 ± 2.90% and the inhibition at 1 µM (U937 cells) is reported as 15.8 ± 2.29%.

With `CCCc1ccc(C(=O)Nc2cc3c(cc2-c2ccc(C(=O)NCCCC(=O)NO)cc2)OCO3)cc1` [Fa-20, 4-{4-[6–(4-Propyl-benzoylamino)-benzo[1,3]dioxol-5-yl]-benzoylamino}-N-Hydroxy-butyramide] the “HDACs percentage inhibitory rate” value [1] was 21.14 ± 2.55% and the inhibition at 1 µM (U937 cells) was 12.2 ± 0.24%.

`O=C(CCCNC(=O)c1ccc(-c2cc3c(cc2NC(=O)c2c(F)cccc2Cl)OCO3)cc1)NO` [Fa-21, 4-{4-[6–(2-Chloro-6-fluoro-benzoylamino)-benzo[1,3]dioxol-5-yl]-benzoylamino}-N-Hydroxy-butyramide] was tested, and the “HDACs percentage inhibitory rate” value [1] was 15.58 ± 3.25% and the inhibition at 1 µM (U937 cells) was 11.2 ± 1.01%.

With `O=C(CCCNC(=O)c1ccc(-c2cc3c(cc2NC(=O)c2cc(F)ccc2F)OCO3)cc1)NO` [Fa-22, 4-{4-[6–(2,5-Difluoro-benzoylamino)-benzo[1,3]dioxol-5-yl]-benzoylamino}-N-Hydroxy-butyramide] the “HDACs percentage inhibitory rate” value [1] was 24.89 ± 4.89% and the inhibition at 1 µM (U937 cells) was 4.73 ± 0.64%.

For `O=C(CCCNC(=O)c1ccc(-c2cc3c(cc2NC(=O)c2ccc(F)c(C(F)(F)F)c2)OCO3)cc1)NO` [Fa-23, 4-{4-[6–(4-Fluoro-3-trifluoromethyl-benzoylamino)-benzo[1,3]dioxol-5-yl]-benzoylamino}-N-Hydroxy-butyramide], the “HDACs percentage inhibitory rate” value [1] was 20.29 ± 0.29% and the inhibition at 1 µM (U937 cells) was 17.4 ± 3.35%.
